System: 845751-090-R-J2-PDC tumor spheroid viability
Assay: Anticancer human tumor 845751-090-R-J2-PDC patient-derived head and neck squamous carcinoma cell line growth inhibition [IpAb]
Details: spheroids with HUVEC and MSC; for IC50: curve of first compound; for viability, T/C: stronger effect = lower value
Description: Combinatorial screen of targeted agents with ipatasertib and abemaciclib in multi-cell type tumor spheroids
A high-throughput screen of multi-cell type tumor spheroids was designed to identify active combinations of targeted small molecules and ipatasertib or abemaciclib. Complex spheroids include a stromal component modeled by human endothelial cells (HUVEC) and fibroblasts modeled by human mesenchymal stem cells (MSCs). The concentration ranges selected for each drug and investigational agent were based upon clinically achievable concentrations if the clinical Cmax of the agent was known.
Compounds. The drugs and investigational agents: ipatasertib (NSC767898), abemaciclib(NSC768073), selumetinib (NSC741078), trametinib (758246), adavosertib (NSC754352), everolimus (NSC733504), sapanisertib (NSC764658), vemurafenib (NSC761431), venetoclax (NSC766270), copanlisib (NSC809693), apelisib (NSC765974), palbociblib (NSC758247), vemurafenib (NSC761431), dabrafenib (NSC764134), ravoxertinib (NSC781343), BMS-387032 (NSC767048), sotorasib (NSC818433), talazoparib (NSC767125) and afursertib (NSC778305), were obtained from the National Cancer Institute (NCI) Developmental Therapeutics Program Chemical Repository. The FDA-approved anticancer drug set is available from the NCI Developmental Therapeutics Program. […] The stock solutions were prepared in dimethyl sulfoxide (DMSO, Sigma-Aldrich, St. Louis, MO, cat. D2650) at 800-fold the tested concentration and stored at -70 degrees C prior to their use. All drugs and investigational agents were tested over a range starting from a high concentration at or near the clinical Cmax and decreasing in half-log increments. If the clinical Cmax for an agent had not been determined, the highest concentration tested was 10 microM.
NCI60 Cell Culture. NCI60 cell lines were obtained from the NCI Developmental Therapeutics Program Tumor Repository. For each lot of cells, the Repository performed Applied Biosystems AmpFLSTR Identifiler testing with PCR amplification to confirm consistency with the published Identifier STR profile for each cell line. Cells were kept in continuous culture for no more than 20 passages. The optimal seeding densities for each of the cell lines at each time point assessed were determined prior to performing the concentration response studies. Briefly, the NCI60 human tumor lines were grown as monolayers in RPMI 1640 medium supplemented with 10% FBS and 2 mmol/L L-glutamine.
An additional 9 lines were from the NCI60 cell line panel including MDA-MB-231 breast carcinoma, MDA-MB-468 breast carcinoma, MCF7 breast carcinoma, Hs578T breast carcinoma, MALME-3M melanoma, SK-MEL-2 melanoma, SK-OV-3 ovarian carcinoma, DU-145 prostate carcinoma, PC-3 prostate carcinoma, all cell lines along with major genetic alterations are listed on Table 2. Pooled donor human umbilical vein endothelial cells (HUVEC, Lonza, cat. CC-2519) and human mesenchymal stem cells (hMSC, Lonza, cat. PT-2501) were purchased from Lonza (Walkersville, MD).
PDMR cell lines were grown in complete medium (DC medium): Dulbecco's modified Eagle's medium (DMEM)/F12 supplemented with 5% fetal bovine serum (FBS), 2 mM L-glutamine, 100 U/mL penicillin and 100 µg/ml streptomycin, 0.4 µg/ml hydrocortisone, 10 ng/ml epidermal growth factor (EGF) recombinant human protein, 24 µg/mL adenine, and 0.1 mg/mL primocin. During culture from frozen stock vials, PDMR cells were cultured in the same medium containing 10 µM Y-27632 (see Table 3). The PDCs were cultured in complete DMEM/F12 media without 10 microM Y-27632 dihydrochloride for at least two passages prior to the screen. The pooled donor HUVEC and hMSC were cultured in endothelial cell growth medium 2 (PromoCell, Heidelberg, Germany, cat. C-22011) and mesenchymal stem cell growth medium 2 (PromoCell, cat. C-28009), respectively. For all experiments, HUVEC and hMSC were used at passages </=5.
[…]

[1] = second compound 0.1 µM, first compound 0.0316 µM
[2] = second compound 0.1 µM, first compound 0.1 µM
[3] = second compound 0.316 µM, first compound 0.0316 µM
[4] = second compound 0.316 µM, first compound 0.1 µM
[5] = second compound 1 µM, first compound 0.0316 µM
[6] = second compound 1 µM, first compound 0.1 µM
[7] = second compound 3.16 µM, first compound 0.0316 µM
[8] = second compound 3.16 µM, first compound 0.1 µM
[9] = second compound 10 µM, first compound 0.0316 µM
[10] = second compound 10 µM, first compound 0.1 µM
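Note: spheroids exposed to compounds for 7 days before readout.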
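Throughout, for viability, T/C: CTG3D luminescence normalised so that 100% = DMSO vehicle control.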

CC(C)n1nc(-c2ccc3oc(N)nc3c2)c2c(N)ncnc21 + CC(C)NCC(C(=O)N1CCN(c2ncnc3c2C(C)CC3O)CC1)c1ccc(Cl)cc1
IC50 (second compound 0.1 µM): 1.3 nM | IC50 (second compound 0.316 µM): < 0.316 nM | IC50 (second compound 1 µM): < 0.316 nM | IC50 (second compound 3.16 µM): < 0.316 nM | IC50 (second compound 10 µM): < 0.316 nM | viability, T/C (second compound 0.1 µM, first compound 0.000316 µM): 55.2% | viability, T/C (second compound 0.1 µM, first compound 0.001 µM): 48.8% | viability, T/C (second compound 0.1 µM, first compound 0.00316 µM): 45.1% | viability, T/C (second compound 0.1 µM, first compound 0.01 µM): 28.1% | viability, T/C [1]: 21.2% | viability, T/C [2]: 21.8% | viability, T/C (second compound 0.316 µM, first compound 0.000316 µM): 36% | viability, T/C (second compound 0.316 µM, first compound 0.001 µM): 27.3% | viability, T/C (second compound 0.316 µM, first compound 0.00316 µM): 23.3% | viability, T/C (second compound 0.316 µM, first compound 0.01 µM): 13.5% | viability, T/C [3]: 11.2% | viability, T/C [4]: 9.02% | viability, T/C (second compound 1 µM, first compound 0.000316 µM): 22.4% | viability, T/C (second compound 1 µM, first compound 0.001 µM): 22.9% | viability, T/C (second compound 1 µM, first compound 0.00316 µM): 12.2% | viability, T/C (second compound 1 µM, first compound 0.01 µM): 8.4% | viability, T/C [5]: 8.17% | viability, T/C [6]: 9.76% | viability, T/C (second compound 3.16 µM, first compound 0.000316 µM): 24.3% | viability, T/C (second compound 3.16 µM, first compound 0.001 µM): 13.1% | viability, T/C (second compound 3.16 µM, first compound 0.00316 µM): 8.4% | viability, T/C (second compound 3.16 µM, first compound 0.01 µM): 5.71% | viability, T/C [7]: 4% | viability, T/C [8]: 3.17% | viability, T/C (second compound 10 µM, first compound 0.000316 µM): 8.63% | viability, T/C (second compound 10 µM, first compound 0.001 µM): 7.55% | viability, T/C (second compound 10 µM, first compound 0.00316 µM): 4.17% | viability, T/C (second compound 10 µM, first compound 0.01 µM): 4.42% | viability, T/C [9]: 2.07% | viability, T/C [10]: 1.99%

CCCS(=O)(=O)Nc1ccc(F)c(C(=O)c2c[nH]c3ncc(-c4ccc(Cl)cc4)cc23)c1F + CC(C)NCC(C(=O)N1CCN(c2ncnc3c2C(C)CC3O)CC1)c1ccc(Cl)cc1
IC50 (second compound 0.1 µM): > 10000 nM | IC50 (second compound 0.316 µM): 126 nM | IC50 (second compound 1 µM): < 31.6 nM | IC50 (second compound 3.16 µM): < 31.6 nM | IC50 (second compound 10 µM): < 31.6 nM | viability, T/C [1]: 74.3% | viability, T/C [2]: 75.2% | viability, T/C (second compound 0.1 µM, first compound 0.316 µM): 63% | viability, T/C (second compound 0.1 µM, first compound 1 µM): 61.6% | viability, T/C (second compound 0.1 µM, first compound 3.16 µM): 49% | viability, T/C (second compound 0.1 µM, first compound 10 µM): 53.4% | viability, T/C [3]: 47.2% | viability, T/C [4]: 52.1% | viability, T/C (second compound 0.316 µM, first compound 0.316 µM): 46.1% | viability, T/C (second compound 0.316 µM, first compound 1 µM): 55.4% | viability, T/C (second compound 0.316 µM, first compound 3.16 µM): 56.7% | viability, T/C (second compound 0.316 µM, first compound 10 µM): 38.8% | viability, T/C [5]: 46.5% | viability, T/C [6]: 45.9% | viability, T/C (second compound 1 µM, first compound 0.316 µM): 37.6% | viability, T/C (second compound 1 µM, first compound 1 µM): 31.2% | viability, T/C (second compound 1 µM, first compound 3.16 µM): 42.5% | viability, T/C (second compound 1 µM, first compound 10 µM): 24.8% | viability, T/C [7]: 41.9% | viability, T/C [8]: 42.6% | viability, T/C (second compound 3.16 µM, first compound 0.316 µM): 29% | viability, T/C (second compound 3.16 µM, first compound 1 µM): 26.5% | viability, T/C (second compound 3.16 µM, first compound 3.16 µM): 32% | viability, T/C (second compound 3.16 µM, first compound 10 µM): 16.3% | viability, T/C [9]: 18.7% | viability, T/C [10]: 17.2% | viability, T/C (second compound 10 µM, first compound 0.316 µM): 19.6% | viability, T/C (second compound 10 µM, first compound 1 µM): 14.7% | viability, T/C (second compound 10 µM, first compound 3.16 µM): 15.7% | viability, T/C (second compound 10 µM, first compound 10 µM): 7.71%
